According to paper PMC6950057, “Toxicity, Pharmacokinetics, and Gut Microbiome of Oral Administration of Sesterterpene MHO7 Derived from a Marine Fungus” (Marine Drugs, 2019):
Read-outs that look alike come from different tables or passages of the source.

Experiments:
[1] = Stability in simulated gastric fluid (SGF); assay type: in vitro ADME; details: for percentage concentration remaining in SGF: at 8 h
Method: (§1) SGF was prepared with modifications according to Lee et al. (2012) by mixing 100 mL of distilled water with a pH value set to 2.0 with hydrochloric acid and 1 g pepsin solution (800–2000 U/mg of protein). SIF was produced according to USP specifications (Test Solutions, United States Pharmacopeia 35, NF 30, 2012). Monobasic potassium phosphate (0.68 g) was dissolved in 25 mL of water. Then, 7.7 mL of 0.2 M NaOH was added to adjust the pH to 6.8. To this, 1 g of pancreatin was added and shaken gently until dissolved and the volume adjusted to 100 mL with water. Pancreatin was added after adjusting the pH of the solution to 6.8 to avoid precipitation of the enzyme.
(§2) Aliquots (199 µL) of SGF and SIF were placed in 1.5 mL microcentrifuge tubes and incubated at 37 °C for 10 min in a water bath, respectively. Different concentrations of MHO7 (1 µL) were added to each of the above microcentrifuge tubes to start the reaction with being incubated at 37 °C at 250 rpm in a shaking water bath. The reaction was stopped by adding ice ACN (800 µL) to each tube at intervals of 0, 0.5, 1, 2, 4, 6, and 8 h. The samples were vortexed for 15 min and centrifuged at 4 °C and 15,000 rpm for 15 min. After centrifuging the supernatant layer was taken directly for LC-MS analysis. Each experiment was carried out in triplicate, and average values were plotted. QC samples were prepared in the same way of inactivating pepsin in SGF incubation system at the concentrations of 1, 0.1 and 0.01 μM·L^−1 for HQC, MQC and LQC, respectively.

[2] = Stability in simulated intestinal fluid (SIF); assay type: in vitro ADME; details: for percentage concentration remaining in SIF: at 8 h
Method: as §1, §2

[3] = Tissue distribution after single oral dose; assay type: in vivo, mice; details: oral 500 mg·kg^−1, female mice; for concentration at 1 h / concentration at 4 h / concentration at 8 h / concentration at 12 h / concentration at 20 h / concentration at 30 h: KM, mouse
Method: The animals and treatment methods were the same as in the pharmacokinetic studies. Afterwards, the biological samples (n = 6 per group) were collected at 1, 4, 8, 12, 20, and 30 h, and the tissues including heart, liver, spleen, lung, kidney, stomach, intestine, brain, muscle (hind limb), fat (white adipose tissue ), reproductive organs (uterus, fallopian tube and ovary) stomach and its contents, and intestine and its contents, and the blood samples were simultaneously collected. All the tissues were washed with cold physiological saline (4 °C), excess fluid blotted, accurately weighed, and subjected to the processing as described in the sample preparation. QC samples and standard curve series solutions were prepared in the same way of blank gastrointestinal contents and livers, respectively. The concentrations of HQC, MQC, and LQC in mice tissues were 10, 1, and 0.1 μM·L^−1, respectively, and the concentrations of standard curve series solutions were 50, 25, 10, 5, 2.5, 1, 0.5, 0.25, 0.1, and 0.005 μM·L^−1 for high and low concentrations of standard curves.

[4] = MHO7 added at 0.05 mM·L^−1, 37 °C
[5] = initial addition 0.5 mM·L^−1, 37 °C
[6] = under the concentration of 5 mM·L^−1

CC(C)=C/C=C/[C@H](C)[C@H]1CC[C@]2(C)C[C@@H]3C(C)=CC(=O)[C@H]3/C(C=O)=C\C[C@@H]12 [MHO7, 6-epi-ophiobolin G]
percentage concentration remaining in SGF [1, 4]: 76.19 ± 0.99% | percentage concentration remaining in SGF [1, 5]: 80.2 ± 3.15% | stability in SGF [1, 6]: stable | percentage concentration remaining in SIF [2, 4]: 94.83 ± 1.14% | percentage concentration remaining in SIF [2, 5]: 89.74 ± 0.86% | stability in SIF [2, 6]: stable | Concentration in Brain ([3]; 1 h): 0.95 ± 0.80 µg/g | Concentration in Liver ([3]; 1 h): 3.01 ± 1.53 µg/g | Concentration in Reproductive organs ([3]; 1 h): 0.88 ± 0.68 µg/g | Concentration in Fat ([3]; 4 h): 5.20 ± 3.47 µg/g | Concentration in Liver ([3]; 4 h): 1.64 ± 1.09 µg/g | Concentration in Reproductive organs ([3]; 4 h): 2.29 ± 1.80 µg/g | Concentration in Fat ([3]; 8 h): 11.15 ± 8.87 µg/g | Concentration in Kidney ([3]; 8 h): 1.66 ± 0.74 µg/g | Concentration in Reproductive organs ([3]; 8 h): 23.90 ± 11.33 µg/g | Concentration in Kidney ([3]; 12 h): 8.16 ± 6.23 µg/g | Concentration in Lung ([3]; 12 h): 2.34 ± 1.91 µg/g | Concentration in Reproductive organs ([3]; 12 h): 13.69 ± 10.29 µg/g | Concentration in Reproductive organs ([3]; 20 h): 1.46 ± 1.23 µg/g | Concentration in Reproductive organs ([3]; 30 h): 0.36 ± 0.46 µg/g | concentration at 1 h ([3]; brain, 1 h, read-out: Concentration in Brain): 950 ± 800 ng/g | concentration at 4 h ([3]; brain, 4 h, read-out: Concentration in Brain): 480 ± 330 ng/g | concentration at 8 h ([3]; brain, 8 h, read-out: Concentration in Brain): 500 ± 150 ng/g | concentration at 12 h ([3]; brain, 12 h, read-out: Concentration in Brain): 180 ± 110 ng/g | concentration at 20 h ([3]; brain, 20 h, read-out: Concentration in Brain): 100 ± 50 ng/g | concentration at 30 h ([3]; brain, 30 h, read-out: Concentration in Brain): 10 ± 4 ng/g | concentration at 1 h ([3]; fat (white adipose tissue), 1 h, read-out: Concentration in Fat): 740 ± 410 ng/g | concentration at 4 h ([3]; fat (white adipose tissue), 4 h, read-out: Concentration in Fat): 5200 ± 3470 ng/g | concentration at 8 h ([3]; fat (white adipose tissue), 8 h, read-out: Concentration in Fat): 11200 ± 8870 ng/g | concentration at 12 h ([3]; fat (white adipose tissue), 12 h, read-out: Concentration in Fat): 740 ± 700 ng/g | concentration at 20 h ([3]; fat (white adipose tissue), 20 h, read-out: Concentration in Fat): 340 ± 250 ng/g | concentration at 30 h ([3]; fat (white adipose tissue), 30 h, read-out: Concentration in Fat): 180 ± 160 ng/g | concentration at 1 h ([3]; heart, 1 h, read-out: Concentration in Heart): 60 ± 37 ng/g | concentration at 4 h ([3]; heart, 4 h, read-out: Concentration in Heart): 850 ± 510 ng/g | concentration at 8 h ([3]; heart, 8 h, read-out: Concentration in Heart): 670 ± 480 ng/g | concentration at 12 h ([3]; heart, 12 h, read-out: Concentration in Heart): 640 ± 300 ng/g | concentration at 20 h ([3]; heart, 20 h, read-out: Concentration in Heart): 40 ± 20 ng/g | concentration at 30 h ([3]; heart, 30 h, read-out: Concentration in Heart): 80 ± 10 ng/g | concentration at 1 h ([3]; kidney, 1 h, read-out: Concentration in Kidney): 110 ± 60 ng/g | concentration at 4 h ([3]; kidney, 4 h, read-out: Concentration in Kidney): 1630 ± 920 ng/g | concentration at 8 h ([3]; kidney, 8 h, read-out: Concentration in Kidney): 1660 ± 740 ng/g | concentration at 12 h ([3]; kidney, 12 h, read-out: Concentration in Kidney): 8160 ± 6230 ng/g | concentration at 20 h ([3]; kidney, 20 h, read-out: Concentration in Kidney): 390 ± 90 ng/g | concentration at 30 h ([3]; kidney, 30 h, read-out: Concentration in Kidney): 70 ± 10 ng/g | concentration at 1 h ([3]; liver, 1 h, read-out: Concentration in Liver): 3010 ± 1530 ng/g | concentration at 4 h ([3]; liver, 4 h, read-out: Concentration in Liver): 1640 ± 1090 ng/g | concentration at 8 h ([3]; liver, 8 h, read-out: Concentration in Liver): 180 ± 220 ng/g | concentration at 12 h ([3]; liver, 12 h, read-out: Concentration in Liver): 490 ± 370 ng/g
